# In US20030104507A1, “Method for detection of ATP” (priority 2001, published 2003):
# System: endogenous ATPase of L929 cell lysate
# Test: ATPase inhibition at 22° C. and 37° C. by buffered detergent solution with 1% DTAB
# Type: biochemical
# Details: up to five hours
# Procedure: Cell lysate was prepared as described in Example 1. The ability of 1% DTAB to inhibit endogenous ATPase (i.e., ATPase present in a sample) was measured in a complete reagent composition over time at both 22° C. (room temperature) and 37° C. Three cell lysate samples were prepared. Sample 1 contained 4.0 ml L929 cell lysate plus 4.0 ml 25 mM Hepes, pH 7.5. Sample 2 contained 4.0 ml L929 cell lysate plus 4.0 ml buffered detergent solution (40 mM Citrate (pH 6.0), 110 mM MES (pH 6.0), 450 mM KPO4 (pH 6.0), 2.0 mM EDTA, 0.2% Mazu DF-204 (PPG Industries), 2.0 mM NaF, 1.0% DTAB and 2% THESIT—final pH of the buffered detergent solution adjusted to 6.0). Sample 3 contained 4.0 ml DMEM/F12 media (no serum) containing 0.1 μM ATP plus 4.0 ml 25 mM Hepes (pH 7.5). The samples were divided in half; half was incubated at 22° C., half was incubated at 37° C. After 10 minutes of incubation in their respective water baths to allow the solution at 37° C. to reach that temperature (this point is referred to as time=10 min.), 100 μl of each sample was transferred independently to a well of a 96-well luminometer plate in quadruplicate. To each 100 μl sample was added 20 μl of a solution containing luciferin (12.5 mM)/luciferase (200 μg/ml LucPpe2m146)/MgSO4 (50 mM) solution. The resulting relative light units were measured on a Dynex luminometer using 0.5 second reads. […]
smiles,measurement,setting,value
"CCCCCCCCCCCC[N+](C)(C)C.[Br-] [DTAB, dodecyltrimethylammonium bromide]",loss of ATP (inhibition of ATPase endogenous to the sample),22° C.,no loss of ATP
same,loss of ATP (inhibition of ATPase endogenous to the sample),37° C.,minimal loss
